Reference: publication PMC7481482, “Development of Anthraquinone Derivatives as Ectonucleoside Triphosphate Diphosphohydrolase (NTPDase) Inhibitors With Selectivity for NTPDase2 and NTPDase3” (Frontiers in Pharmacology, 2020)

Legend:
human NTPDase1 = molecular target: T1, human NTPDase1 (Homo sapiens, UniProt P49961); assay: Malachite green assay, human NTPDase1; format: biochemical; details: 2 μM compound; 50 µM ATP; COS-7 membrane preparation; read-out: % inhibition at 2 μM concentration, NTPDase1
T1 construct: expressed in transfected cells; host or cells: COS-7 cells (membrane preparation)
T1 sequence (P49961 1-510): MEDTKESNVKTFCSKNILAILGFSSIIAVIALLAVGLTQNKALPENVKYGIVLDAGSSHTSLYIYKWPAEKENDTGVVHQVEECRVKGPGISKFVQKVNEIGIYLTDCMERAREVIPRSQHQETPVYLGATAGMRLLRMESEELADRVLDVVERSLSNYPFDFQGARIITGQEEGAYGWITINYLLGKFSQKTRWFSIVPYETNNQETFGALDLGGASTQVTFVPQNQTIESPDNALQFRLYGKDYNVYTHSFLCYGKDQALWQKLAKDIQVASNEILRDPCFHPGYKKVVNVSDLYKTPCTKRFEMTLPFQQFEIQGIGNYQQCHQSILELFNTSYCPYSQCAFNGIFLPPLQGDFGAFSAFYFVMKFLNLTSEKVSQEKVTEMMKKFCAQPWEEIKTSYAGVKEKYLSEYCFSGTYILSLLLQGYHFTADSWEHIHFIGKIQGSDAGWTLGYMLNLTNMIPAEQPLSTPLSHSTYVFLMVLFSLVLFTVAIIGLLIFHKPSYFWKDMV
How it was run: (§1)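 COS-7 membranes expressing each NTPDase were preincubated with compound for 5 min at 37 °C, pH 7.4 HEPES buffer with 2 mM CaCl2/1 mM MgCl2. ATP was 50 µM for NTPDase1 and 100 µM for -2, -3, -8; reaction ran 15 min at 37 °C. Released phosphate read by malachite green at 600 nm; screen at 2 µM, IC50 over 0.03–30 µM in 2% DMSO.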

human NTPDase2 = molecular target: T2, human NTPDase2 (Homo sapiens, UniProt Q9Y5L3); assay: Malachite green assay, human NTPDase2; format: biochemical; details: 2 μM compound; 100 µM ATP; COS-7 membrane preparation; read-out: % inhibition at 2 μM concentration, NTPDase2
T2 construct: expressed in transfected cells; host or cells: COS-7 cells (membrane preparation)
T2 sequence (Q9Y5L3 1-495): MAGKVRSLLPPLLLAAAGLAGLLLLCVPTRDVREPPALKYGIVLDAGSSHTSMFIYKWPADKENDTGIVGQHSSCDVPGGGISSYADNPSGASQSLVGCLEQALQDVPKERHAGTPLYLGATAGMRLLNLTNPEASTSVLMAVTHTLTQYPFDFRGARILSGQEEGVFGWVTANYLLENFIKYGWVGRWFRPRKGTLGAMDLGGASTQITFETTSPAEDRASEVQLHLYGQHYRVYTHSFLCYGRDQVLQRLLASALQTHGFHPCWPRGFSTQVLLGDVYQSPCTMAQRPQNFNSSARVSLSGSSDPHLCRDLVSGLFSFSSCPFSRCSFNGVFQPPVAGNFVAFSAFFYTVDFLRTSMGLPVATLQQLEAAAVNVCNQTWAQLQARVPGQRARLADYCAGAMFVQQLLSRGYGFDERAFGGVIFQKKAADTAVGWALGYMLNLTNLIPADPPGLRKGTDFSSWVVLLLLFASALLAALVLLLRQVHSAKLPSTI
How it was run: as §1

rat NTPDase1 = details: rat enzyme; ref Baqi et al., 2009b; cited from earlier work
rat NTPDase3 = details: rat enzyme; ref Baqi et al., 2009b; cited from earlier work

inhibition at 2 µM (human NTPDase1): -19% | inhibition at 2 µM (human NTPDase2): 31%
Compound: Nc1c(S(=O)(=O)O)cc(Nc2cccc3ccccc23)c2c1C(=O)c1ccccc1C2=O [Compound 15]
IC50 (rat NTPDase1): > 100 µM | IC50 (rat NTPDase3): 1.5 µM
